Patent US20070049564A1 (Wyeth, priority 2005, published 2007)
Converted amounts (≈) assume the structure as drawn. Where two headings read alike, the source gives them in different places.

Legend:
E. faecalis GC 2242 = assay: MIC, broth microdilution; conditions: Enterococcus faecalis
P. aeruginosa GC 2214 = assay: MIC, broth microdilution; conditions: Pseudomonas aeruginosa
E. coli GC 2271 = assay: MIC, broth microdilution; conditions: Escherichia coli
S. pyogenes GC 4563 = assay: MIC, broth microdilution; conditions: Streptococcus pyogenes
E. coli GC 1073 = assay: MIC, broth microdilution; conditions: Escherichia coli
E. coli GC 4559 = assay: MIC, broth microdilution; conditions: Escherichia coli
S. aureus GC 6335 = assay: MIC, broth microdilution; conditions: Staphylococcus aureus
S. aureus GC 2216 = assay: MIC, broth microdilution; conditions: Staphylococcus aureus
S. aureus GC 4536 = assay: MIC, broth microdilution; conditions: Staphylococcus aureus
E. coli = assay: Range of MIC for E. coli strains; conditions: Escherichia coli
S. pneumoniae+ GC 4465 = assay: MIC, broth microdilution; conditions: Streptococcus pneumoniae
Staph. aureus Smith = assay: In vivo activity (oral, iv; ED50) against Staph. aureus Smith in mice
Description: Representative examples of compounds of Formula I were tested for the oral efficacy using S. aureus Smith in mice.

S. aureus GC 6469 = assay: MIC, broth microdilution; conditions: Staphylococcus aureus
E. coli GC 2270 = assay: MIC, broth microdilution; conditions: Escherichia coli
S. agalactiae GC 4564 = assay: MIC, broth microdilution; conditions: Streptococcus agalactiae
Description: Antimicrobial susceptibility testing. The in vitro activities of the antibiotics are determined by the broth microdilution method as recommended by the National Committee for Clinical Laboratory Standards (NCCLS) (1). Mueller-Hinton II broth (MHBII)(BBL Cockeysville, Md.) is the medium employed in the testing procedures. Microtiter plates containing serial dilutions of each antimicrobial agent are inoculated with each organism to yield the appropriate density (10^5 CFU/ml) in a 100 μl final volume. The plates are incubated for 18-22 hours at 35° C. in ambient air.
Representative compounds were first incubated in mouse serum for an hour prior to the in vitro testing against a panel of selected gram-positive and gram-negative bacteria strains. All compounds were also pre-incubated in water for an hour prior to testing as control. Representative compounds of Formula I were incubated in human serum prior to MIC determination.

E. faecium GC 2243 = assay: MIC, broth microdilution; conditions: Enterococcus faecium
E. coli GC 3226 = assay: MIC, broth microdilution; conditions: Escherichia coli
c. albicans GC 3066 = assay: MIC, broth microdilution
E. coli GC 2232 = assay: MIC, broth microdilution; conditions: Escherichia coli
E. faecalis GC 2265 = assay: MIC, broth microdilution; conditions: Enterococcus faecalis

SMILES: Cc1ccc(C(=O)OCOC(=O)N(CC(=O)Nc2cc(N(C)C)c3c(c2O)C(=O)C2=C(O)[C@]4(O)C(=O)C(C(N)=O)=C(O)[C@@H](N(C)C)[C@@H]4C[C@@H]2C3)C(C)(C)C)cc1 [Example 47]
- MIC (E. faecalis GC 2242; GC2242, read-out: MINIMAL INHIBITORY CONCENTRATION MIC, pre-incubated in Human Serum): 4 µg/mL (≈ 5.14 µM)
- MIC (E. faecalis GC 2242; GC2242, read-out: MINIMAL INHIBITORY CONCENTRATION MIC, pre-incubated in Mouse Serum): 1 µg/mL (≈ 1.29 µM)
- MIC (E. faecalis GC 2242; GC2242, read-out: MINIMAL INHIBITORY CONCENTRATION MIC, pre-incubated in Water): 4 µg/mL (≈ 5.14 µM)
- MIC (P. aeruginosa GC 2214; GC2214, read-out: MINIMAL INHIBITORY CONCENTRATION MIC, pre-incubated in Human Serum): > 64 µg/mL
- MIC (P. aeruginosa GC 2214; GC2214, read-out: MINIMAL INHIBITORY CONCENTRATION MIC, pre-incubated in Mouse Serum): 32 µg/mL (≈ 41.1 µM)
- MIC (P. aeruginosa GC 2214; GC2214, read-out: MINIMAL INHIBITORY CONCENTRATION MIC, pre-incubated in Water): > 64 µg/mL
- MIC (E. coli GC 2271; GC2271, read-out: MINIMAL INHIBITORY CONCENTRATION MIC, pre-incubated in Human Serum): 16 µg/mL (≈ 20.6 µM)
- MIC (E. coli GC 2271; GC2271, read-out: MINIMAL INHIBITORY CONCENTRATION MIC, pre-incubated in Mouse Serum): 1 µg/mL (≈ 1.29 µM)
- MIC (E. coli GC 2271; GC2271, read-out: MINIMAL INHIBITORY CONCENTRATION MIC, pre-incubated in Water): > 64 µg/mL
- MIC (S. pyogenes GC 4563; GC4563, read-out: MINIMAL INHIBITORY CONCENTRATION MIC, pre-incubated in Human Serum): 0.25 µg/mL (≈ 0.321 µM)
- MIC (S. pyogenes GC 4563; GC4563, read-out: MINIMAL INHIBITORY CONCENTRATION MIC, pre-incubated in Mouse Serum): 0.12 µg/mL (≈ 0.154 µM)
- MIC (S. pyogenes GC 4563; GC4563, read-out: MINIMAL INHIBITORY CONCENTRATION MIC, pre-incubated in Water): 0.25 µg/mL (≈ 0.321 µM)
- MIC (E. coli GC 1073; GC1073, read-out: MINIMAL INHIBITORY CONCENTRATION MIC, pre-incubated in Human Serum): 32 µg/mL (≈ 41.1 µM)
- MIC (E. coli GC 1073; GC1073, read-out: MINIMAL INHIBITORY CONCENTRATION MIC, pre-incubated in Mouse Serum): 2 µg/mL (≈ 2.57 µM)
- MIC (E. coli GC 1073; GC1073, read-out: MINIMAL INHIBITORY CONCENTRATION MIC, pre-incubated in Water): > 64 µg/mL
- MIC (E. coli GC 4559; GC4559, read-out: MINIMAL INHIBITORY CONCENTRATION MIC, pre-incubated in Human Serum): 64 µg/mL (≈ 82.3 µM)
- MIC (E. coli GC 4559; GC4559, read-out: MINIMAL INHIBITORY CONCENTRATION MIC, pre-incubated in Mouse Serum): 2 µg/mL (≈ 2.57 µM)
- MIC (E. coli GC 4559; GC4559, read-out: MINIMAL INHIBITORY CONCENTRATION MIC, pre-incubated in Water): > 64 µg/mL
- MIC (S. aureus GC 6335; GC6335, read-out: MINIMAL INHIBITORY CONCENTRATION MIC, pre-incubated in Human Serum): 2 µg/mL (≈ 2.57 µM)
- MIC (S. aureus GC 6335; GC6335, read-out: MINIMAL INHIBITORY CONCENTRATION MIC, pre-incubated in Mouse Serum): 1 µg/mL (≈ 1.29 µM)
- MIC (S. aureus GC 6335; GC6335, read-out: MINIMAL INHIBITORY CONCENTRATION MIC, pre-incubated in Water): 2 µg/mL (≈ 2.57 µM)
- MIC (S. aureus GC 2216; GC2216, read-out: MINIMAL INHIBITORY CONCENTRATION MIC, pre-incubated in Human Serum): 1 µg/mL (≈ 1.29 µM)
- MIC (S. aureus GC 2216; GC2216, read-out: MINIMAL INHIBITORY CONCENTRATION MIC, pre-incubated in Mouse Serum): 1 µg/mL (≈ 1.29 µM)
- MIC (S. aureus GC 2216; GC2216, read-out: MINIMAL INHIBITORY CONCENTRATION MIC, pre-incubated in Water): 2 µg/mL (≈ 2.57 µM)
- MIC (S. aureus GC 4536; GC4536, read-out: MINIMAL INHIBITORY CONCENTRATION MIC, pre-incubated in Human Serum): 1 µg/mL (≈ 1.29 µM)
- MIC (S. aureus GC 4536; GC4536, read-out: MINIMAL INHIBITORY CONCENTRATION MIC, pre-incubated in Mouse Serum): 1 µg/mL (≈ 1.29 µM)
- MIC (S. aureus GC 4536; GC4536, read-out: MINIMAL INHIBITORY CONCENTRATION MIC, pre-incubated in Water): 4 µg/mL (≈ 5.14 µM)
- MIC (E. coli; 20 h, read-out: Range of MIC, E. coli (Mouse Serum)): 0.5 to 2 µg/mL (≈ 0.643 to 2.57 µM)
- MIC (E. coli; read-out: Minimum inhibitory concentration (MIC), E. coli (water)): > 64 µg/mL
- MIC (E. coli; read-out: Range of MIC, E. coli (Water)): > 64 µg/mL
- MIC (S. pneumoniae+ GC 4465; read-out: MINIMAL INHIBITORY CONCENTRATION MIC, pre-incubated in Human Serum): 2 µg/mL (≈ 2.57 µM)
- MIC (S. pneumoniae+ GC 4465; read-out: MINIMAL INHIBITORY CONCENTRATION MIC, pre-incubated in Mouse Serum): 2 µg/mL (≈ 2.57 µM)
- MIC (S. pneumoniae+ GC 4465; read-out: MINIMAL INHIBITORY CONCENTRATION MIC, pre-incubated in Water): 4 µg/mL (≈ 5.14 µM)
- ED50 (Staph. aureus Smith; Staphylococcus aureus, in Mus musculus, iv, read-out: ED50 SIV (Staph aureus Smith)): 1.2 mg/kg
- ED50 (Staph. aureus Smith; Staphylococcus aureus, in Mus musculus, po, read-out: ED50 SOD (Staph aureus Smith)): 14 mg/kg
- ED50 (Staph. aureus Smith; Staphylococcus aureus, in Mus musculus, po, read-out: ED50 Staph Smith SOD): 14 mg/kg
- ED50 (Staph. aureus Smith; iv, read-out: ED50 Staph Smith SIV): 1.2 mg/kg
- MIC (S. aureus GC 6469; GC6469, read-out: MINIMAL INHIBITORY CONCENTRATION MIC, pre-incubated in Human Serum): 2 µg/mL (≈ 2.57 µM)
- MIC (S. aureus GC 6469; GC6469, read-out: MINIMAL INHIBITORY CONCENTRATION MIC, pre-incubated in Mouse Serum): 1 µg/mL (≈ 1.29 µM)
- MIC (S. aureus GC 6469; GC6469, read-out: MINIMAL INHIBITORY CONCENTRATION MIC, pre-incubated in Water): 4 µg/mL (≈ 5.14 µM)
- MIC (E. coli GC 2270; GC2270, read-out: MINIMAL INHIBITORY CONCENTRATION MIC, pre-incubated in Human Serum): 16 µg/mL (≈ 20.6 µM)
- MIC (E. coli GC 2270; GC2270, read-out: MINIMAL INHIBITORY CONCENTRATION MIC, pre-incubated in Mouse Serum): 0.5 µg/mL (≈ 0.643 µM)
- MIC (E. coli GC 2270; GC2270, read-out: MINIMAL INHIBITORY CONCENTRATION MIC, pre-incubated in Water): > 64 µg/mL
- MIC (S. agalactiae GC 4564; GC4564, read-out: MINIMAL INHIBITORY CONCENTRATION MIC, pre-incubated in Human Serum): 1 µg/mL (≈ 1.29 µM)
- MIC (S. agalactiae GC 4564; GC4564, read-out: MINIMAL INHIBITORY CONCENTRATION MIC, pre-incubated in Mouse Serum): 0.5 µg/mL (≈ 0.643 µM)
- MIC (S. agalactiae GC 4564; GC4564, read-out: MINIMAL INHIBITORY CONCENTRATION MIC, pre-incubated in Water): 1 µg/mL (≈ 1.29 µM)
- MIC (E. faecium GC 2243; GC2243, read-out: MINIMAL INHIBITORY CONCENTRATION MIC, pre-incubated in Human Serum): 2 µg/mL (≈ 2.57 µM)
- MIC (E. faecium GC 2243; GC2243, read-out: MINIMAL INHIBITORY CONCENTRATION MIC, pre-incubated in Mouse Serum): 0.5 µg/mL (≈ 0.643 µM)
- MIC (E. faecium GC 2243; GC2243, read-out: MINIMAL INHIBITORY CONCENTRATION MIC, pre-incubated in Water): 2 µg/mL (≈ 2.57 µM)
- MIC (E. coli GC 3226; GC3226, read-out: MINIMAL INHIBITORY CONCENTRATION MIC, pre-incubated in Human Serum): 32 µg/mL (≈ 41.1 µM)
- MIC (E. coli GC 3226; GC3226, read-out: MINIMAL INHIBITORY CONCENTRATION MIC, pre-incubated in Mouse Serum): 2 µg/mL (≈ 2.57 µM)
- MIC (E. coli GC 3226; GC3226, read-out: MINIMAL INHIBITORY CONCENTRATION MIC, pre-incubated in Water): > 64 µg/mL
- MIC (c. albicans GC 3066; Candida albicans, GC3066, read-out: MINIMAL INHIBITORY CONCENTRATION MIC): > 64 µg/mL
- MINIMAL INHIBITORY CONCENTRATION MIC (c. albicans GC 3066; pre-incubated in Human Serum): >64 UG/ML
- MINIMAL INHIBITORY CONCENTRATION MIC (c. albicans GC 3066; pre-incubated in Mouse Serum): >64 UG/ML
- MIC (E. coli GC 2232; GC2232, read-out: MINIMAL INHIBITORY CONCENTRATION MIC, pre-incubated in Human Serum): 16 µg/mL (≈ 20.6 µM)
- MIC (E. coli GC 2232; GC2232, read-out: MINIMAL INHIBITORY CONCENTRATION MIC, pre-incubated in Mouse Serum): 1 µg/mL (≈ 1.29 µM)
- MIC (E. coli GC 2232; GC2232, read-out: MINIMAL INHIBITORY CONCENTRATION MIC, pre-incubated in Water): > 64 µg/mL
- MIC (E. faecalis GC 2265; GC2265, read-out: MINIMAL INHIBITORY CONCENTRATION MIC, pre-incubated in Human Serum): 4 µg/mL (≈ 5.14 µM)
- MIC (E. faecalis GC 2265; GC2265, read-out: MINIMAL INHIBITORY CONCENTRATION MIC, pre-incubated in Mouse Serum): 1 µg/mL (≈ 1.29 µM)
- MIC (E. faecalis GC 2265; GC2265, read-out: MINIMAL INHIBITORY CONCENTRATION MIC, pre-incubated in Water): 4 µg/mL (≈ 5.14 µM)
